Experimental data from US20120022143A1, “RNA Interference Mediated Inhibition of the Thymic Stromal Lymphopoietin (TSLP) Gene Expression Using Short Interfering Nucliec Acid (siNA)” (Merck Sharp & Dohme Corp, priority 2009, published 2012).
[invAb] = inverted abasic unit; d = 2'-deoxy (DNA); m = 2'-O-methyl; r = 2'-OH (RNA); f = 2'-fluoro

What was measured:
mTSLP mRNA = test: Initial screening: mouse TSLP mRNA knock-down by RT-PCR (Taqman) after RNAiMax transfection of NIH 3T3 cells; type: cell-based; conditions: 10 nM siNA, 24 hrs post-transfection, mean ± s.d., summary from 2 screens
Method: (§1) All cells were obtained from ATCC (Manassas, Va.) unless otherwise indicated. Cells were grown and transfected under standard conditions, which are detailed below for each cell line.
NIH 3T3 (murine; ATCC cat#CRL-1658): Cells were cultured at 37° C. in the presence of 5% CO2 and grown in Dulbecco's modified Eagle's medium (DMEM) with 4 mM L-glutamine adjusted to contain 1.5 g/L sodium bicarbonate and 4.5 g/L glucose and supplemented with fetal bovine serum at a final concentration of 10% and 100 μg/mL of streptomycin and 100 U/mL penicillin.
(§2) All transfections were performed using RNAiMax (Invitrogen Cat# 13778-150) as per the manufacturer's instructions.
(§3) Both human and murine cell lines were transfected in the similar fashion. Cells were plated in all wells of a tissue-culture treated, 96-well plate at a final count of 5,000 cells/well in […], of appropriate culture media. Cells were cultured for 24 hours after plating at 37° C. in the presence of 5% CO2.
(§4) After 24 hours, complexes containing siNA and RNAiMax were created as follows: A solution of RNAiMax diluted 33-fold in OPTI-MEM was prepared. In parallel, solutions of the siNAs for testing were prepared to a final concentration of 120 nM in OPTI-MEM. After incubation of RNAiMax/OPTI-MEM solution at room temperature for 5 min, an equal volume of the siNA solution and the RNAiMax solution were added together for each of the siNAs.
(§5) This solution was incubated at room temperature for 20 minutes. After incubation, 20 uL of the solution was added to each of the relevant wells.
(§6) The final concentration of siNA in each well was 10 nM and the final volume of RNAiMax in each well was 0.3 ul.
(§7) The time of incubation with the RNAiMax-siNA complexes was 24 hours, unless otherwise indicated. There was no change in media between the transfection and harvesting of the cells unless otherwise indicated.
(§8) RNA was extracted from a 96-well plate using the TaqMan® Gene Expression Cells-to-CT™ Kit (Cat# 4399002) with a modified protocol. Briefly, a 60 uL (1 plate) or 110 uL (2 plates) of the Lysis Solution with DNase I was dispensed into each well of the Lysis Buffer Plate (twin.tec full skirt plate). The lysis buffer and stop plates were stored at 4° C. until the cells were washed.
(§9) The plate was spun at 1100 rpm for 5 minutes. The culture medium was aspirated and discarded from the wells of the culture plate. The lysis was performed automatically using a BioMek FX instrument and method. After the Biomek method was completed, the lysis plate was incubated for 2 min. at room temperature. The lysis plate can be stored for 2 hours at 4° C., or at −20° C. or −80° C. for two months.
(§10) Each well of the reverse transcription plate required 10 uL of 2× reverse transcriptase Buffer, luL of 20× reverse transcription enzyme and 2 uL of nuclease-free water. The reverse transcription master mix was prepared by mixing 2× reverse transcription buffer, 20× reverse transcription enzyme mix, and nuclease-free water. 13 uL of the reverse transcription master mix was dispensed into each well of the reverse transcription plate (semi-skirted). A separate reverse transcription plate was prepared for each cell plate. The plate was loaded onto a Biomek NX or Biomek FX Dual-96 and the Biomek method was run. The program is programmed to automatically added 7 uL of lysate from the cell lysis procedure described above into each well of the reverse transcription plate. The plate is sealed and spun on a centrifuge (1000 rpm for 30 seconds) to settle the contents to the bottom of the reverse transcription plate. The plate is placed in a thermocycler at 37° C. for 60 min, 95° C. for 5 min, and 4° C. until the plate is removed from the thermocycler. Upon removal, if not used immediately, the plate was frozen at −20° C.
A series of probes and primers were used to detect the various mRNA transcripts of the genes of TSLP, IL-8 and GAPDH in human cell lines. […]

TSLP mRNA = test: Initial screening: TSLP mRNA knock-down by RT-PCR (Taqman) after RNAiMax transfection of NHLF cells; type: cell-based; conditions: 10 nM siNA, human NHLF cells, 24 hrs post-transfection, relative to non-targeting control, normalized to GAPDH; mean ± s.d. from 2 experiments
Method: as §1
NHLF (human; Lonza cat# CC-2512): Cells were cultured at 37° C. in the presence of 5% CO2 and grown Fibroblast Basal Medium (Lonza cat# CC-3β2) supplemented growth factors (provided with the kit) and 100 μg/mL of streptomycin and 100 U/mL penicillin.
as §2, §3, §4, §5, §6, §7, §8, §9, §10
A series of probes and primers were used to detect the various mRNA transcripts of the genes of TSLP, IL-8 and GAPDH in human cell lines. All the Taqman probes and primers for the experiments here-in described were supplied as pre-validated sets by Applied Biosystems, Inc. (see Table 2). […]

Substance | % KD mTSLP NIH3T3 (mTSLP mRNA) | % KD TSLP (TSLP mRNA)
25468-DC: siNA duplex: sense B uGcuGAAuAAAGuAAuucu TTB (SEQ ID NO: 119), antisense AGAAuuAcuuuAuucAGcAUU (SEQ ID NO: 120) (sense UGCUGAAUAAAGUAAUUCUTT; antisense AGAAUUACUUUAUUCAGCAUU; sense: DNA at AGT, 2'-fluoro at CU, [invAb] at 5' end, 3' end, backbone not given here; antisense: sugars from the 5' end rrrmffmffffmfffmmfmmm, backbone not given here) | 32.2 ± 15.2% | 30 ± 12.9%
25435-DC: siNA duplex: sense B cccAAGcucuuAAAuGcuA TTB (SEQ ID NO: 53), antisense UAGcAuuuAAGAGcuuGGGUU (SEQ ID NO: 54) (sense CCCAAGCUCUUAAAUGCUATT; antisense UAGCAUUUAAGAGCUUGGGUU; sense: DNA at AGT, 2'-fluoro at CU, [invAb] at 5' end, 3' end, backbone not given here; antisense: sugars from the 5' end rrrfmfffmmmmmfffmmmmm, backbone not given here) | −60.6 ± 5.4% | −8 ± 25.4%
25437-DC: siNA duplex: sense B cAGGGAGAcuccAAcuuAA TTB (SEQ ID NO: 57), antisense UUAAGuuGGAGucucccuGUU (SEQ ID NO: 58) (sense CAGGGAGACUCCAACUUAATT; antisense UUAAGUUGGAGUCUCCCUGUU; sense: sugars from the 5' end frddddddffffddfffdddd, [invAb] at 5' end, 3' end, backbone not given here; antisense: sugars from the 5' end rrrmmffmmmmfffffffmmm, backbone not given here) | 33.8 ± 4.2% | −51 ± 36.2%
25433-DC: siNA duplex: sense B cGcucGccAAAGAAAuGuu TTB (SEQ ID NO: 49), antisense AACAuuucuuuGGcGAGcGUU (SEQ ID NO: 50) (sense CGCUCGCCAAAGAAAUGUUTT; antisense AACAUUUCUUUGGCGAGCGUU; sense: DNA at AGT, 2'-fluoro at CU, [invAb] at 5' end, 3' end, backbone not given here; antisense: sugars from the 5' end rrrmfffffffmmfmmmfmmm, backbone not given here) | 7.5 ± 3.3% | 36 ± 25^ %
25430-DC: siNA duplex: sense B cccuGAAAAAGGAAAAAuA TTB (SEQ ID NO: 43), antisense UAUuuuuccuuuuucAGGGUU (SEQ ID NO: 44) (sense CCCUGAAAAAGGAAAAAUATT; antisense UAUUUUUCCUUUUUCAGGGUU; inverted abasic caps, TT overhang, chemistry not fully specified) | 30.4 ± 9.9% | 89 ± 4.5%
25441-DC: siNA duplex: sense B GGucAGuuAuGucAAuGuu TTB (SEQ ID NO: 65), antisense AACAuuGAcAuAAcuGAccUU (SEQ ID NO: 66) (sense GGUCAGUUAUGUCAAUGUUTT; antisense AACAUUGACAUAACUGACCUU; sense: DNA at AGT, 2'-fluoro at CU, [invAb] at 5' end, 3' end, backbone not given here; antisense: sugars from the 5' end rrrmffmmfmfmmffmmffmm, backbone not given here) | −13.4 ± 10^ % | 40 ± 16.2%
25458-DC: siNA duplex: sense B GuAGAAAAAAAAAuuAAAA TTB (SEQ ID NO: 99), antisense UUUuAAuuuuuuuuucuAcUU (SEQ ID NO: 100) (sense GUAGAAAAAAAAAUUAAAATT; antisense UUUUAAUUUUUUUUUCUACUU; sense: sugars from the 5' end d1 f1 d11 f2 d6, [invAb] at 5' end, 3' end, backbone not given here; antisense: sugars from the 5' end rrrfmmfffffffffffmfmm, backbone not given here) | 21.6 ± 0.5% | 45 ± 9.9%
